Data taken from patent publication US9745320B2, “Five-and-six-membered heterocyclic compound, and preparation method, pharmaceutical composition and use thereof” (SHANGHAI CHEMEXPLORER CO., LTD., priority 2013, dated 2017).

Key:
Assay type in all cases: biochemical
JAK2 = JAK2 (Homo sapiens, UniProt O60674); experiment: JAK 2 enzymatic inhibitory activity IC50 assay (Caliper conversion rate); conditions: Km ATP, 28° C., 1 hour
Description: (§1) Biological effect: intracytoplasmic JAK 1,2,3 enzymatic inhibitory activity IC50 assay
(§2) JAK1 buffer solution: 25 mM HEPES, pH 7.5, 0.01% Brij-35, 0.01 M Triton. JAK2,3 buffer solution: 50 mM HEPES, pH 7.5, 0.0015% Brij-35.
(§3) 2. Compound was formulated in 100% DMSO in a concentration gradient, deposited to a 384-well plate with a final concentration of 2% of DMSO.
(§4) 3. JAK2,3 enzymes were diluted to having an optimum concentration with the following buffer: 50 mM HEPES, pH 7.5, 0.0015% Brij-35, 2 mM DTT. JAK1 enzyme was diluted to having an optimum concentration with the following buffer: 25 mM HEPES, pH 7.5, 0.01% Brij-35, 2 mM DTT, 0.01M Triton. Then they were transferred to a 384-well plate and incubated with the compound for a certain time.
(§5) 4. JAK2,3 substrate was diluted to having an optimum concentration with the following buffer: 50 mM HEPES, pH 7.5, 0.0015% Brij-35, 10 mM MgCl2, Km adenosine triphosphate. JAK1 substrate was diluted to having an optimum concentration with the following buffer: 25 mM HEPES, pH 7.5, 0.01% Brij-35, 10 mM MgCl2, 0.01 M Triton. Km adenosine triphosphate was added into 384-well plates to initiate reactions, and the reaction were carried out at 28° C. for 1 hour.
(§6) 5. Read the conversion rate by Caliper Reader, and the inhibition rate are calculated according to the average of two tests.

JAK3 = target: T1, JAK3 (Homo sapiens, UniProt P52333); experiment: JAK 3 enzymatic inhibitory activity IC50 assay (Caliper conversion rate); conditions: Km ATP, 28° C., 1 hour; read-out: JAK 3 enzymatic inhibitory activity IC50
T1 sequence (P52333 1-1124): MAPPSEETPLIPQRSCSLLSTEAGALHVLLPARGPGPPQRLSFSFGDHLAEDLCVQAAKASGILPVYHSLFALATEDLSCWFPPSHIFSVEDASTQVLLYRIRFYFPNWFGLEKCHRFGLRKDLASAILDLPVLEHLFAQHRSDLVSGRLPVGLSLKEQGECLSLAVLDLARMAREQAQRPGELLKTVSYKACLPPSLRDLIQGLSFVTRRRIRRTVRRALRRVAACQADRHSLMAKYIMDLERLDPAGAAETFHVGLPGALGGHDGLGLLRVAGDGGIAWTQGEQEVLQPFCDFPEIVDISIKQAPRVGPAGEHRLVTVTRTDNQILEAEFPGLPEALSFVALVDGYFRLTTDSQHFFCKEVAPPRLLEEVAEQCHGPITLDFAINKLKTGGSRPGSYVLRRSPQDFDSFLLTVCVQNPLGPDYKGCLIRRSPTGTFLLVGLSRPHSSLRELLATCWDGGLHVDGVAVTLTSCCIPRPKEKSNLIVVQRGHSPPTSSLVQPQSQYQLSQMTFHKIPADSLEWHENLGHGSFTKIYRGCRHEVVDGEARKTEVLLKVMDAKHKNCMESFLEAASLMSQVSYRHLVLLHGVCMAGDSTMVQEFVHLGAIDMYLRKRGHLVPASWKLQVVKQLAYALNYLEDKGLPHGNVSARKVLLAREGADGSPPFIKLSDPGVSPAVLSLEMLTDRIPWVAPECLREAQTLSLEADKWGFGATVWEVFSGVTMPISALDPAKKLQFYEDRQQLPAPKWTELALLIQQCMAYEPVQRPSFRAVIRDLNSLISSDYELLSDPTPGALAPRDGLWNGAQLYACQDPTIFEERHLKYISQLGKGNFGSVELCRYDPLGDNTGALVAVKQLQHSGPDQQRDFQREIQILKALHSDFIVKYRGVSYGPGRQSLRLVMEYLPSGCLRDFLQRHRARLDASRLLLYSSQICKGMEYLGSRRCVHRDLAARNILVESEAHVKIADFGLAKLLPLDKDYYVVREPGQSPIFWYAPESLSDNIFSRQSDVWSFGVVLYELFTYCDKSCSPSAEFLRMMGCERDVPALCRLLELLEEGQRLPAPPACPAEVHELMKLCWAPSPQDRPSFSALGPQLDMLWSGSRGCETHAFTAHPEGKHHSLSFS
Description: as §1, §2, §3
as §4, with “time. […]” for “time.”
as §6

JAK1 = JAK1 (Homo sapiens, UniProt P23458); experiment: JAK 1 enzymatic inhibitory activity IC50 assay (Caliper conversion rate); conditions: Km ATP, 28° C., 1 hour
Chain of JAK1 (P23458 whole entry, species assumed): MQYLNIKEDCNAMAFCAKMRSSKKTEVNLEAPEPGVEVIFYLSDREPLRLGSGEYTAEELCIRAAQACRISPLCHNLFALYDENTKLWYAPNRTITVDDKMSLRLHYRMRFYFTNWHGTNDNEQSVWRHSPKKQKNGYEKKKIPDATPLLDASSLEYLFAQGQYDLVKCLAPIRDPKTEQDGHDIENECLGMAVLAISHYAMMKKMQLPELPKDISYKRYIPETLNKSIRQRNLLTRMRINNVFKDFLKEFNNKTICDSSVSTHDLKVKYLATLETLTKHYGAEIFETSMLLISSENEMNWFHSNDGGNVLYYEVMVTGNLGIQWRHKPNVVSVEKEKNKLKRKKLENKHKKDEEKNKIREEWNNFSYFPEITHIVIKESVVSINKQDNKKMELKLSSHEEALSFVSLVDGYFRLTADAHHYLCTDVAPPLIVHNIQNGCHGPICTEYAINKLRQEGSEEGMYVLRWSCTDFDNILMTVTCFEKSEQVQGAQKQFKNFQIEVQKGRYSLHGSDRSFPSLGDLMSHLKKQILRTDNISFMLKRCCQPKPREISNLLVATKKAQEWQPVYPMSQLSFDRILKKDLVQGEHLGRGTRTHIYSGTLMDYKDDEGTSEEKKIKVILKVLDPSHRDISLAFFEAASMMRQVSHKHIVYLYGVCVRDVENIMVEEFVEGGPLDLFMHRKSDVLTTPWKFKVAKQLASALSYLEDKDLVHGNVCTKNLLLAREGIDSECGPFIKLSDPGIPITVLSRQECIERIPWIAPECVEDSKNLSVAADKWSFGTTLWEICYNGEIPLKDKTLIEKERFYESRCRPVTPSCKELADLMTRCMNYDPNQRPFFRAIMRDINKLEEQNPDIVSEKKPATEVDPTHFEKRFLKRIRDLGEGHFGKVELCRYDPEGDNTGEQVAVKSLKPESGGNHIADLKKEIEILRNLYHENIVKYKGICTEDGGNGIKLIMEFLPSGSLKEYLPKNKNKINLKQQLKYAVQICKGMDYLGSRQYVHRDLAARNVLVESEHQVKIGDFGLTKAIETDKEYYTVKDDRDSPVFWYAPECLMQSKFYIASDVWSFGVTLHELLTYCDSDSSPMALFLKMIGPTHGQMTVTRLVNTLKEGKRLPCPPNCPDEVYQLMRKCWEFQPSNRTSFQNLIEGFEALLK
Description: as §1, §2, §3, §4, §5, §6

Chain of JAK2 (O60674 whole entry, species assumed): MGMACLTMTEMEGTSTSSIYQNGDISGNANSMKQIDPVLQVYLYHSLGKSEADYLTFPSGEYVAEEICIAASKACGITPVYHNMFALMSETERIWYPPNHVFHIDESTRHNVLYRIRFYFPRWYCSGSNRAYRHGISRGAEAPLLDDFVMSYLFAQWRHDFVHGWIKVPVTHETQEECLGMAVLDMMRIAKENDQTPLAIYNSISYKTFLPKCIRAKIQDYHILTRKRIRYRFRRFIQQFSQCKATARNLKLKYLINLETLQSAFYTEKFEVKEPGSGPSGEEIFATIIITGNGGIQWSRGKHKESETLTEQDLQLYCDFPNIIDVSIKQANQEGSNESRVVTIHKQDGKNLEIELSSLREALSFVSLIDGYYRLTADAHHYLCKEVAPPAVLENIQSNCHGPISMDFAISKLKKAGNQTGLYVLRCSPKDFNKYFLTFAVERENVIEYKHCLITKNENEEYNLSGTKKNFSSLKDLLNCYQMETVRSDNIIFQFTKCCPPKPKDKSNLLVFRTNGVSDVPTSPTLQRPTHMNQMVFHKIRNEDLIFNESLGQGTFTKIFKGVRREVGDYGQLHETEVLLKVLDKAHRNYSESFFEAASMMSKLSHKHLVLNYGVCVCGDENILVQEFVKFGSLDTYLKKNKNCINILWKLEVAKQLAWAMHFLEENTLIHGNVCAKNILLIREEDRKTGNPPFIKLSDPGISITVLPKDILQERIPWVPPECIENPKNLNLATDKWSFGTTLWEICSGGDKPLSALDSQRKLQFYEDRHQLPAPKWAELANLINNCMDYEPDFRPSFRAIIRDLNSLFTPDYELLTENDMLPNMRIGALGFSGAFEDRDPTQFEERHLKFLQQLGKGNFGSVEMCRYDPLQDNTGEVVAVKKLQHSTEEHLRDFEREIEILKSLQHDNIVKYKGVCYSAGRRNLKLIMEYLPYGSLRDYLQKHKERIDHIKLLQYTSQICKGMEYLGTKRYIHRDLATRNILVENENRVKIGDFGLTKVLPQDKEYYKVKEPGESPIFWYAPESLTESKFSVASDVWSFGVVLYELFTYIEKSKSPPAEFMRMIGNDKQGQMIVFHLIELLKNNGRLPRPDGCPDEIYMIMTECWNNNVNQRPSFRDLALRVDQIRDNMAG

Compound	IC50 (JAK2)	IC50 (JAK3)	IC50 (JAK1)
CC(CC#N)n1cc(-c2nc(NCc3ccccc3)nc3ccsc23)cn1 (stereo not shown) [Compound T-01, 3-(4-(2-(Benzylamino)thieno[3,2-d]pyrimidin-4-yl)-1H-pyrazol-1-yl)butanenitrile]	> 1000 nM	> 1000 nM	–
CC(CC#N)n1cc(-c2nc(Nc3ccccc3)nc3ccsc23)cn1 (stereo not shown) [Compound T-02, 3-(4-(2-(Phenylamino)thieno[3,2-d]pyrimidin-4-yl)-1H-pyrazol-1-yl)butanenitrile]	50 to 500 nM	> 1000 nM	–
N#CCC(C1CCCC1)n1cc(-c2nc(Nc3ccccc3)nc3ccsc23)cn1 (stereo not shown) [Compound T-03, 3-Cyclopentyl-3-(4-(2-(phenylamino)thieno[3,2-d]pyrimidin-4-yl)-1H-pyrazol-1-yl)propanenitrile]	< 50 nM	> 1000 nM	–
N#CCC(C1CCCC1)n1cc(-c2nc(Nc3cncnc3)nc3ccsc23)cn1 (stereo not shown) [Compound T-04, 3-Cyclopentyl-3-(4-(2-(pyrimidin-5-ylamino)thieno[3,2-d]pyrimidin-4-yl)-1H-pyrazol-1-yl)propanenitrile]	< 50 nM	> 1000 nM	–
CCS(=O)(=O)N1CC(CC#N)(n2cc(-c3nc(Nc4ccccc4)nc4ccsc34)cn2)C1 [Compound T-05, 2-(1-(Ethylsulfonyl)-3-(4-(2-(phenylamino)thieno[3,2-d]pyrimidin-4-yl)-1H-pyrazol-1-yl)azetidin-3-yl)acetonitrile]	< 50 nM	50 to 500 nM	50 to 500 nM
CCS(=O)(=O)N1CC(CC#N)(n2cc(-c3nc(NC4CCOCC4)nc4ccsc34)cn2)C1 [Compound T-06, 2-(1-(Ethylsulfonyl)-3-(4-(2-((tetrahydro-2H-pyran-4-yl)amino)thieno[3,2-d]pyrimidin-4-yl)-1H-pyrazol-1-yl)azetidin-3-yl)acetonitrile]	> 1000 nM	> 1000 nM	–
CCS(=O)(=O)N1CC(CC#N)(n2cc(-c3nc(Nc4ccc(N5CCOCC5)cc4)nc4ccsc34)cn2)C1 [Compound T-07, 2-(1-(Ethylsulfonyl)-3-(4-(2-((4-morpholinophenyl)amino)thieno[3,2-d]pyrimidin-4-yl)-1H-pyrazol-1-yl)azetidin-3-yl)acetonitrile]	< 50 nM	50 to 500 nM	< 50 nM
CCS(=O)(=O)N1CC(CC#N)(n2cc(-c3nc(Nc4ccc(OCCN5CCOCC5)cc4)nc4ccsc34)cn2)C1 [Compound T-08, 2-(1-(Ethylsulfonyl)-3-(4-(2-((4-(2-morpholinoethoxy)phenyl)amino)thieno[3,2-d]pyrimidin-4-yl)-1H-pyrazol-1-yl)azetidin-3-yl)acetonitrile]	< 50 nM	50 to 500 nM	–
CCS(=O)(=O)N1CC(CC#N)(n2cc(-c3nc(Nc4ccc(OCCN5CCCC5)cc4)nc4ccsc34)cn2)C1 [Compound T-09, 2-(1-(Ethylsulfonyl)-3-(4-(2-((4-(2-(pyrrolidin-1-yl)ethoxy)phenyl)amino)thieno[3,2-d]pyrimidin-4-yl)-1H-pyrazol-1-yl)azetidin-3-yl)acetonitrile]	< 50 nM	50 to 500 nM	50 to 500 nM
CCS(=O)(=O)N1CC(CC#N)(n2cc(-c3nc(Nc4ccc(-n5cncn5)cc4)nc4ccsc34)cn2)C1 [Compound T-10, 2-(3-(4-(2-((4-(1H-1,2,4-Triazol-1-yl)phenyl)amino)thieno[3,2-d]pyrimidin-4-yl)-1H-pyrazol-1-yl)-1-(ethylsulfonyl)azetidin-3-yl)acetonitrile]	< 50 nM	50 to 500 nM	< 50 nM

The remaining lines, values ahead:

IC50 (JAK2)	IC50 (JAK3)	IC50 (JAK1)	Compound
< 50 nM	> 1000 nM	50 to 500 nM	CCS(=O)(=O)N1CC(CC#N)(n2cc(-c3nc(Nc4ccc(-n5cccn5)cc4)nc4ccsc34)cn2)C1 [Compound T-11, 2-(3-(4-(2-((4-(1H-Pyrazol-1-yl)phenyl)amino)thieno[3,2-d]pyrimidin-4-yl)-1H-pyrazol-1-yl)-1-(ethylsulfonyl)azetidin-3-yl)acetonitrile]
< 50 nM	50 to 500 nM	< 50 nM	CCS(=O)(=O)N1CC(CC#N)(n2cc(-c3nc(Nc4ccc(S(C)(=O)=O)cc4)nc4ccsc34)cn2)C1 [Compound T-12, 2-(1-(Ethylsulfonyl)-3-(4-(2-((4-(methylsulfonyl)phenyl)amino)thieno[3,2-d]pyrimidin-4-yl)-1H-pyrazol-1-yl)azetidin-3-yl)acetonitrile]
50 to 500 nM	500 to 1000 nM	500 to 1000 nM	CCS(=O)(=O)N1CC(CC#N)(n2cc(-c3nc(Nc4cccc(N5CCOCC5)c4)nc4ccsc34)cn2)C1 [Compound T-13, 2-(1-(Ethylsulfonyl)-3-(4-(2-((3-morpholinophenyl)amino)thieno[3,2-d]pyrimidin-4-yl)-1H-pyrazol-1-yl)azetidin-3-yl)acetonitrile]
< 50 nM	> 1000 nM	500 to 1000 nM	CCS(=O)(=O)N1CC(CC#N)(n2cc(-c3nc(Nc4cncnc4)nc4ccsc34)cn2)C1 [Compound T-14, 2-(1-(Ethylsulfonyl)-3-(4-(2-(pyrimidin-5-ylamino)thieno[3,2-d]pyrimidin-4-yl)-1H-pyrazol-1-yl)azetidin-3-yl)acetonitrile]
< 50 nM	50 to 500 nM	< 50 nM	CCS(=O)(=O)N1CC(CC#N)(n2cc(-c3nc(Nc4cnn(C)c4)nc4ccsc34)cn2)C1 [Compound T-15, 2-(1-(Ethylsulfonyl)-3-(4-(2-((1-methyl-1H-pyrazol-4-yl)amino)thieno[3,2-d]pyrimidin-4-yl)-1H-pyrazol-1-yl)azetidin-3-yl)acetonitrile]
> 1000 nM	> 1000 nM	> 1000 nM	N#CCNC(=O)c1ccc(-c2nc(Nc3ccccc3)nc3ccsc23)cc1 [Compound T-16, N-(Cyanomethyl)-4-(2-(phenylamino)thieno[3,2-d]pyrimidin-4-yl)benzamide]
> 1000 nM	> 1000 nM	> 1000 nM	CC(C)(C)NS(=O)(=O)c1ccc(-c2nc(Nc3ccc(N4CCOCC4)cc3)nc3ccsc23)cc1 [Compound T-17, N-(Tert-butyl)-4-(2-((4-morpholinophenyl)amino)thieno[3,2-d]pyrimidin-4-yl)benzenesulfonamide]
< 50 nM	> 1000 nM	–	CCS(=O)(=O)N1CC(CC#N)(n2cc(-c3nc(Nc4ccc(F)cc4)nc4ccsc34)cn2)C1 [Compound T-24, 2-(1-(Ethylsulfonyl)-3-(4-(2-((4-fluorophenyl)amino)thieno[3,2-d]pyrimidin-4-yl)-1H-pyrazol-1-yl)azetidin-3-yl)acetonitrile]
> 1000 nM	> 1000 nM	–	CCS(=O)(=O)N1CC(CC#N)(n2cc(-c3nc(NC4CCCCC4)nc4ccsc34)cn2)C1 [Compound T-27, 2-(3-(4-(2-(Cyclohexylamino)thieno[3,2-d]pyrimidin-4-yl)-1H-pyrazol-1-yl)-1-(ethylsulfonyl)azetidin-3-yl)acetonitrile]
